# Reference: patent US6080735A, “Estra-1,3,5(10)-trien derivatives, processes for their preparation and pharmaceutical compositions containing these compounds” (priority 1994, dated 2000)
# Like-named read-outs stand apart in the source and are kept apart here.
# Assays:
# [1] = test system: uterus (ovariectomised rats); assay: Uterus weight after oral treatment of ovariectomised rats (oral estrogen effects, sexual function); assay type: in vivo; conditions: ovariectomised rat, 10 μg/animal/d p.o., d1 to d7
# Source text: The adult female experimental animals (breeder: HSD/WIN:WU) were ovariectomised (Day […]). Treatment with one daily oral application of test substances was started two weeks after ovariectomy. All animals were assigned to groups by randomised approach. The experiment was a block design. All animals were weighed twice, prior to and at the end of the experiment. Start and end of treatment were defined as Day 1 (=d1) or Day 7 (=d7). The animals were sacrificed on Day 8. Several organs (uterus, adrenal glands, liver) were removed and weighed and were passed on in deep-frozen condition (-196° C.) for further investigation.
# [2] = Blood level after oral application to ovariectomised rats; assay type: in vivo; conditions: ovariectomised rat, 10 μg/animal/d p.o., d1 to d7
# Experimental: Evidence was provided to hepatic estrogenicity in ovariectomised rats: The adult female experimental animals (breeder: HSD/WIN:WU) were ovariectomised (Day […]). Treatment with one daily oral application of test substances was started two weeks after ovariectomy.
# Start and end of treatment were defined as Day 1 (=d1) or Day 7 (=d7). The animals were sacrificed on Day 8. Several organs (uterus, adrenal glands, liver) were removed and weighed and were passed on in deep-frozen condition (-196° C.) for further investigation.
# Blood was taken from the retrobulbar plexus prior to treatment (d0) as well as on (d4) and (d8), with the animals etherized. The serum thus obtained was used to determine IGF1, angiotensin I, cholesterol and HDL cholesterol.
# [3] = cited from earlier work
# angiotensin = conditions: EE 30 μg to 20 μg with 150 μg gestagen (desogestrel), cited from earlier work
# liver = conditions: cited from earlier work
# [4] = cited from earlier work; remark: listed apart in the source
# [5] = 0-24 hours from application, Goldzieher
smiles,measurement,setting,value
"CN(C)S(=O)(=O)Oc1ccc2c(c1)CC[C@@H]1[C@@H]2CC[C@]2(C)[C@@H](O)[C@H](O)C[C@@H]12 [J 989, 16α,17β-dihydroxy-estra-1,3,5(10)-trien-3-yl N,N-dimethylsulfamate]",Uterus weight,[1],183 mg
"C#C[C@]1(O)CC[C@H]2[C@@H]3CCc4cc(O)ccc4[C@H]3CC[C@@]21C [Ethinyl estradiol (EE), ethinyl estradiol]",Uterus weight,[1],353 mg
same,Blood level,[2],0.0289 ng/mL (serum)
same,highest AUC recorded,[3]; [5],2.121 ng·h/mL
same,lowest AUC,[3]; [5],0.284 ng·h/mL
same,Oral bioavailability compared with natural estrogens,"[3]; human, oral, in words",much better in bioavailability
same,Effect of dose reduction on increased angiotensin levels,angiotensin; six months,marginally reduced values
same,Effect of dose reduction on increased angiotensin levels,angiotensin; three months,did not result in reduction
same,"Hepatic estrogenicity, in words","liver; in vivo, po",Even stronger hepatic estrogenicity
same,Estrogenic effectiveness in the liver relative to orally administered natural estrogens,liver; in vivo,eight to ten times as high
"CCN(CC)S(=O)(=O)Oc1ccc2c(c1)CC[C@@H]1[C@@H]2CC[C@]2(C)[C@@H](O)C[C@@H]3C[C@]312 [J 983, 17β-hydroxy-14α,15α-methylene-estra-1,3,5(10)-trien-3-yl N,N-diethylsulfamate]",Uterus weight,[1],349 mg
"CN(C)S(=O)(=O)Oc1ccc2c(c1)CC[C@@H]1[C@@H]2CC[C@]2(C)[C@@H](O)C[C@@H]3C[C@]312 [J 982, 17β-hydroxy-14α,15α-methylene-estra-1,3,5(10)-trien-3-yl N,N-dimethylsulfamate]",Uterus weight,[1],193 mg
"C[C@]12CC[C@@H]3c4ccc(O)cc4CC[C@H]3[C@@H]1C[C@@H](O)[C@@H]2O [Estriol (E3), estriol]",Bioavailability after oral application,[4]; in words,tends to be minimised
C[C@]12CC[C@@H]3c4ccc(OS(=O)(=O)O)cc4CC[C@H]3[C@@H]1CCC2=O [estrone sulphate],Bioavailability after oral application,[4]; in words,tends to be minimised
"CCN(CC)S(=O)(=O)Oc1ccc2c(c1)CC[C@@H]1[C@@H]2CC[C@]2(C)[C@@H](O)[C@H](O)C[C@@H]12 [J 984, 16α,17β-dihydroxy-estra-1,3,5(10)-trien-3-yl N,N-diethylsulfamate]",Uterus weight,[1],246 mg
CC/C(=C(/CC)c1ccc(O)cc1)c1ccc(O)cc1 [DES],"Hepatic estrogenicity, in words","liver; oral, compared with conjugated and natural estrogens",Even stronger hepatic estrogenicity
"C[C@]12CC[C@@H]3c4ccc(O)cc4CC[C@H]3[C@@H]1CC[C@@H]2O [Estradiol (E2), estradiol]",Uterus weight,[1],182 mg
same,Blood level,[2],0.0192 ng/mL (serum)
same,Bioavailability after oral application,"[4]; in vivo, po",tends to be minimised
C[C@]12CC[C@@H]3c4ccc(O)cc4CC[C@H]3[C@@H]1CCC2=O [estrone],Bioavailability after oral application,"[4]; in vivo, po",tends to be minimised
